In the supplement of paper PMC10307832:

Key:
Experiment in all cases: relative viability (nuclei count vs DMSO), 5 days (fraction); higher = more cells survive
Pictilisib + Phenformin = compound: CS(=O)(=O)N1CCN(Cc2cc3nc(-c4cccc5[nH]ncc45)nc(N4CCOCC4)c3s2)CC1 [Pictilisib] + N=C(N)NC(=N)NCCc1ccccc1 [Phenformin] (partner 250 µM)
Procedure, shortened: (§1)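 Lung cancer cell lines, seeded in 1536-well plates, were treated the following day by pin tool with a single drug or with five library-drug doses (not always all listed) in √10 steps on top of a fixed anchor-drug dose. Cells were fixed and nuclei stained in one step after 5 days, and nuclei were counted. Relative viability is the nuclei count for treated wells divided by that for vehicle wells, reported as medians of duplicate plates.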

Pictilisib + Vorinostat = compound: CS(=O)(=O)N1CCN(Cc2cc3nc(-c4cccc5[nH]ncc45)nc(N4CCOCC4)c3s2)CC1 [Pictilisib] + O=C(CCCCCCC(=O)Nc1ccccc1)NO [Vorinostat] (partner 1 µM)
Procedure, shortened: as §1

MK-2206 + Luminespib = compound: NC1(c2ccc(-c3nc4ccn5c(=O)[nH]nc5c4cc3-c3ccccc3)cc2)CCC1 [MK-2206] + CCNC(=O)c1noc(-c2cc(C(C)C)c(O)cc2O)c1-c1ccc(CN2CCOCC2)cc1 [Luminespib] (partner 0.01 µM)
Procedure, shortened: as §1

MK-2206 + Phenformin = compound: NC1(c2ccc(-c3nc4ccn5c(=O)[nH]nc5c4cc3-c3ccccc3)cc2)CCC1 [MK-2206] + N=C(N)NC(=N)NCCc1ccccc1 [Phenformin] (partner 250 µM)
Procedure, shortened: as §1

MK-2206 + Olaparib = compound: NC1(c2ccc(-c3nc4ccn5c(=O)[nH]nc5c4cc3-c3ccccc3)cc2)CCC1 [MK-2206] + O=C(c1cc(Cc2n[nH]c(=O)c3ccccc23)ccc1F)N1CCN(C(=O)C2CC2)CC1 [Olaparib] (partner 8 µM)
Procedure, shortened: as §1

Cell Line	relative viability (Pictilisib + Phenformin; first compound 0.02 µM)	relative viability (Pictilisib + Phenformin; first compound 0.06325 µM)	relative viability (Pictilisib + Phenformin; first compound 0.6325 µM)	relative viability (Pictilisib + Phenformin; first compound 2 µM)	relative viability (Pictilisib + Vorinostat; first compound 0.02 µM)	relative viability (Pictilisib + Vorinostat; first compound 0.06325 µM)	relative viability (Pictilisib + Vorinostat; first compound 0.6325 µM)	relative viability (Pictilisib + Vorinostat; first compound 2 µM)	relative viability (MK-2206 + Luminespib; first compound 0.01 µM)	relative viability (MK-2206 + Luminespib; first compound 0.03162 µM)	relative viability (MK-2206 + Luminespib; first compound 0.3162 µM)	relative viability (MK-2206 + Luminespib; first compound 1 µM)	relative viability (MK-2206 + Phenformin; first compound 0.01 µM)	relative viability (MK-2206 + Phenformin; first compound 0.03162 µM)	relative viability (MK-2206 + Phenformin; first compound 0.3162 µM)	relative viability (MK-2206 + Phenformin; first compound 1 µM)	relative viability (MK-2206 + Olaparib; first compound 0.01 µM)	relative viability (MK-2206 + Olaparib; first compound 0.03162 µM)	relative viability (MK-2206 + Olaparib; first compound 0.3162 µM)	relative viability (MK-2206 + Olaparib; first compound 1 µM)
NCI-H2023	0.43	0.376	0.275	0.169	0.685	0.662	0.35	0.178	0.681	0.66	0.619	0.413	0.398	0.416	0.343	0.271	0.463	0.506	0.436	0.44
Calu-6	–	–	–	–	–	–	–	–	–	–	–	–	–	–	–	–	–	0.592	0.653	0.614
SW 900	0.617	0.554	0.417	0.191	0.695	0.579	0.382	0.231	0.167	0.197	0.175	0.17	0.656	0.71	0.451	0.538	0.79	–	0.874	0.885
HOP-62	0.681	0.701	0.717	0.598	0.676	0.573	0.566	0.348	0.91	0.899	0.919	0.854	0.62	0.725	0.701	0.699	0.472	0.412	0.574	0.573
H3255	0.399	0.344	0.334	0.318	0.813	0.779	0.788	0.414	0.872	1.12	0.754	0.835	0.357	0.322	0.368	0.343	0.539	0.58	0.538	0.518
NCI-H1734	0.427	0.362	0.271	0.197	0.878	0.779	0.482	0.375	0.194	0.168	0.193	0.148	0.355	0.458	0.304	0.338	0.63	0.667	0.648	0.507
SK-MES-1	0.692	0.686	0.621	0.558	1.11	1.12	0.856	0.511	0.901	0.756	0.751	0.751	0.65	0.72	0.609	0.57	0.635	0.727	0.692	0.482
NCI-H1792	0.343	0.257	0.128	0.124	–	–	–	–	0.467	0.455	0.473	0.394	0.329	0.351	0.161	0.184	0.497	0.514	0.532	0.264
EKVX	0.228	0.256	0.211	0.178	0.734	0.538	0.56	0.254	0.991	0.872	0.801	0.69	0.24	0.245	0.204	0.256	0.866	0.777	0.745	0.67
EPLC-272H	0.284	0.323	0.23	0.197	0.477	0.403	0.449	0.23	0.585	0.263	0.338	0.323	0.323	0.285	0.29	0.336	0.855	0.673	0.796	0.527
LK-2	0.468	0.379	0.176	0.143	0.292	0.291	0.214	0.139	0.173	0.199	0.212	0.17	0.302	0.543	0.315	0.174	0.822	0.852	0.664	0.467
CAL-12T	0.612	0.578	0.467	0.239	0.755	0.664	0.629	0.283	0.362	0.515	0.457	0.477	0.492	0.561	0.626	0.564	0.81	0.666	0.703	0.714
NCI-H322M	0.861	0.773	0.566	0.418	0.955	0.888	0.741	0.543	0.91	0.95	0.825	0.882	0.756	0.822	0.725	0.769	0.778	0.806	0.782	0.874
NCI-H1650	0.492	0.318	0.247	0.176	0.566	0.666	0.819	0.358	0.185	0.182	0.215	0.183	0.509	0.465	0.388	0.384	0.72	0.864	0.969	0.957
NCI-H2342	0.581	0.586	0.472	0.355	0.672	0.814	0.695	0.529	0.751	0.655	0.77	0.677	0.657	0.594	0.542	0.417	0.444	0.471	0.386	0.353
SW 1573	0.387	0.318	0.215	0.166	0.767	0.733	0.35	0.217	0.275	0.192	0.201	0.184	0.419	0.457	0.27	0.237	0.5	0.466	0.396	0.393
NCI-H2405	0.4	0.386	0.364	0.23	1.26	1.06	0.842	0.432	0.713	0.853	0.532	0.559	0.392	0.402	0.36	0.321	0.837	0.899	0.875	0.825
LCLC-103H	0.378	0.312	0.294	0.214	0.84	0.737	0.634	0.469	0.983	1.06	0.975	0.89	0.304	0.321	0.351	0.314	0.548	0.768	0.777	0.731
HCC-44	0.215	0.151	0.154	0.0888	1.19	1.14	1.17	0.783	1.05	1.2	1.21	1.09	0.184	0.184	0.152	0.107	1.06	1	1.04	0.97

Cell Line	relative viability (Pictilisib + Phenformin; first compound 0.02 µM)	relative viability (Pictilisib + Phenformin; first compound 0.06325 µM)	relative viability (Pictilisib + Phenformin; first compound 0.6325 µM)	relative viability (Pictilisib + Phenformin; first compound 2 µM)	relative viability (Pictilisib + Vorinostat; first compound 0.02 µM)	relative viability (Pictilisib + Vorinostat; first compound 0.06325 µM)	relative viability (Pictilisib + Vorinostat; first compound 0.6325 µM)	relative viability (Pictilisib + Vorinostat; first compound 2 µM)	relative viability (MK-2206 + Luminespib; first compound 0.01 µM)	relative viability (MK-2206 + Luminespib; first compound 0.03162 µM)	relative viability (MK-2206 + Luminespib; first compound 0.3162 µM)	relative viability (MK-2206 + Luminespib; first compound 1 µM)	relative viability (MK-2206 + Phenformin; first compound 0.01 µM)	relative viability (MK-2206 + Phenformin; first compound 0.03162 µM)	relative viability (MK-2206 + Phenformin; first compound 0.3162 µM)	relative viability (MK-2206 + Phenformin; first compound 1 µM)	relative viability (MK-2206 + Olaparib; first compound 0.01 µM)	relative viability (MK-2206 + Olaparib; first compound 0.03162 µM)	relative viability (MK-2206 + Olaparib; first compound 0.3162 µM)	relative viability (MK-2206 + Olaparib; first compound 1 µM)
RERF-LC-KJ	0.409	0.35	0.343	0.307	0.732	0.699	0.573	0.461	1.27	1.11	0.971	1.06	0.413	0.423	0.408	0.333	0.885	0.93	0.874	0.81
NCI-H1975	0.431	0.387	0.25	0.177	0.708	0.665	0.386	0.204	0.126	0.199	0.204	0.144	0.428	0.402	0.312	0.326	0.705	0.782	0.764	0.663
IA-LM	–	–	–	–	0.917	0.97	0.881	0.373	–	–	–	–	–	–	–	–	0.869	0.791	0.993	0.781
LCLC-97TM1	0.435	0.415	0.398	0.194	0.712	0.658	0.619	0.212	0.873	0.775	0.618	0.616	0.431	0.48	0.315	0.384	0.381	0.351	0.273	0.234
NCI-H520	0.613	0.516	0.19	0.2	0.794	0.73	0.353	0.203	0.213	0.214	0.203	0.207	0.551	0.523	0.212	0.254	0.359	0.331	0.228	0.195
A-427	0.345	0.357	0.27	0.212	0.84	0.874	0.95	0.853	0.882	0.947	0.975	0.901	0.325	0.297	0.219	0.25	0.724	0.704	0.78	0.699
ABC-1	0.254	0.214	0.195	0.209	0.83	1.07	0.859	0.691	0.601	0.334	0.481	0.391	0.265	0.235	0.196	0.232	0.898	0.841	1.1	1.08
NCI-H460	0.549	0.534	0.266	0.0575	0.796	0.757	0.842	0.155	0.035	0.0282	0.0298	0.024	0.489	0.613	0.521	0.45	0.397	0.465	0.484	0.5
NCI-H1395	0.453	0.425	0.386	0.399	1.08	0.727	0.498	0.369	0.77	0.606	0.746	0.651	0.508	0.481	0.4	0.354	0.492	0.49	0.418	0.411
EBC-1	–	–	–	–	–	–	–	–	–	–	–	–	–	–	–	–	0.362	0.685	0.484	0.175
A549	0.235	0.177	0.155	0.0936	–	–	–	–	–	–	–	–	0.173	0.152	0.203	0.124	0.389	0.439	0.333	0.125
NCI-H1563	0.663	0.692	0.56	0.501	–	–	–	–	0.528	0.518	0.577	0.477	0.625	0.601	0.606	0.616	–	–	–	–
NCI-H1703	–	–	–	–	–	–	–	–	–	–	–	–	–	–	–	–	0.444	0.426	0.443	0.407
NCI-H1299	–	–	–	–	–	–	–	–	–	–	–	–	–	–	–	–	0.967	1.04	1.05	1.02
HCC-366	0.631	0.702	0.269	0.129	0.45	0.368	0.226	0.118	–	–	–	–	0.614	0.686	0.564	0.39	0.367	0.472	0.328	0.322
NCI-H1648	–	–	–	–	0.393	0.378	0.239	0.19	–	–	–	–	–	–	–	–	1.01	1.11	0.966	0.769
NCI-H1623	0.646	0.61	0.54	0.274	–	–	–	–	0.499	0.526	0.492	0.458	0.555	0.592	0.574	0.605	–	–	–	–
HCC-78	0.587	0.705	0.427	0.312	0.393	0.384	0.322	0.257	–	–	–	–	0.7	–	0.753	0.524	0.932	1.06	0.716	0.739
